Reference: US9140688B2, “Sperm staining and sorting methods” (INGURAN, LLC, priority 2011, dated 2015)

Experiments:
[1] = cited from earlier work; for Expected Absorption Maxima: solvent water, shorter-wavelength local maximum
[2] = tested on: membrane compromised bovine sperm stained with Hoechst 33342; experiment: Dead quenching: dead gate intensity divided by live gate intensity, flow cytometry of stained bovine sperm; format: cell-based; conditions: for Dead Intensity (dead gate intensity divided by live gate intensity): Ex 5; for Intensity (dead gate): Hoechst 48 μM
Excerpt: FIG. 4 illustrates an example bivariate plot and univariate histogram of the parameters measured during sex selection by a FACS on a flow cytometer. […] Without a dead quenching dye, both populations of sperm would overlap to a large extent, with unpredictable variations in the dead sperm.
The entire ejaculate of sperm was suspended in first staining buffer, specifically a 7.4 pH TALP described in TABLE 1, to a concentration of 160×10^6 sperm per mL (determined on nucleocounter) and divided into three aliquots of about 20 mL into 50 mL Falcon tubes and pre-warmed for 10 minutes at 34° C. The DNA selective fluorescent dye, Hoechst 33342, was added and samples were held at 34° C. for 60 minutes. 3 different Hoechst 33342 Stain Levels were used=12 μL, 14 μL and 16 μL per 2 mL (effective concentrations of 48 μM, 56 μM, 64 μM).
Preparation of the second buffer including the dead quenching dye—A 2 L bag of TALP, described in TABLE 1, was adjusted to pH 5.60 using HCl and then sterile filtered. […] For each of the four dyes tested (R40—red food dye No. 40, Y5—yellow food dye No. 5, Y6—yellow food dye No. 6 and PR—phenol red), an appropriate number of milligrams of each powder was placed in a Erlenmeyer Flask and then an exact amount of TALP pH 5.60 was added to create a […] concentration of the dye. The result was a working TALP stock for each dye with a 100% (125 μM) relative amount of dye 50% relative (62.5 μM) and 20% relative (25 μM) solutions were made by dilution of 100% by TALP pH 5.60.
After this “bulk” staining for 60 minutes, 1 mL aliquots of stained sperm were combined with 1 mL aliquots of the second buffer including the dead quenching dyes. Samples sat for approximately 30 minutes at room temperature before being analyzed on a MoFlo SX (Beckman Coulter, USA) sperm sorting flow cytometer. Event rates were held as close to 13,000 as possible at the point of data acquisition.
The total number of individual treatments was 42 tubes, each containing 2 mL of stained sample. The alignment of the sorter was established using nuclei and confirmed with live sample from the 50% Red 40 series. Once good alignment was established, each tube was placed on the sorter long enough to establish a stabile dead gate population (about 30 seconds) and then a screenshot was taken and saved as a .jpeg image. This approach of rapidly documenting each sample is used to assure the most consistent alignment between all samples. Realignment of sorter will not cause differences in the intensities of live and dead gate populations but will cause differences in split quality.
FIG. 4 illustrates an example histogram. The ratio of dead gate intensity divided by live gate intensity is created by dividing the distance “A” by the distance “B” shown as a percentage. Lower values mean higher levels of quenching. The ratio of peak height divided by valley height is created by dividing the distance “C” by the distance “D”. A value of 1.00 means “no split” while higher values mean “better splits”. […]

[3] = tested on: X- and Y-chromosome bearing bovine sperm stained with Hoechst 33342; experiment: Split quality: height of peak divided by height of valley (PV), flow cytometry of stained bovine sperm; format: cell-based; conditions: for Height of Peak/Height of Valley: Ex 5; for peak to valley ratio, average 8 bulls: Hoechst 64 μM
[4] = dye 62.5 μM, Hoechst 12 μL/2 mL
[5] = dye 62.5 μM, Hoechst 14 μL/2 mL
[6] = dye 62.5 μM, Hoechst 16 μL/2 mL
[7] = Ex 10, split enhancing dye 15 μM, 30 Min incubation, Y6 25 μM in second buffer
[8] = Ex 10, split enhancing dye 15 μM, 45 Min, Y6 25 μM
[9] = Ex 10, split enhancing dye 15 μM, 60 Min, Y6 25 μM
[10] = Ex 10, split enhancing dye 15 μM, 75 Min, Y6 25 μM
[11] = Ex 10, split enhancing dye 45 μM, 30 Min, Y6 25 μM
[12] = Ex 10, split enhancing dye 45 μM, 45 Min, Y6 25 μM
[13] = Ex 10, split enhancing dye 45 μM, 60 Min, Y6 25 μM
[14] = Ex 10, split enhancing dye 45 μM, 75 Min, Y6 25 μM
[15] = Ex 10, split enhancing dye 125 μM, 30 Min, Y6 25 μM
[16] = Ex 10, split enhancing dye 125 μM, 45 Min, Y6 25 μM
[17] = Ex 10, split enhancing dye 125 μM, 60 Min, Y6 25 μM
[18] = Ex 10, split enhancing dye 125 μM, 75 Min, Y6 25 μM

CCN(Cc1cccc(S(=O)(=O)[O-])c1)c1ccc(C(=C2C=CC(=[N+](CC)Cc3cccc(S(=O)(=O)[O-])c3)C=C2)c2ccc(O)cc2S(=O)(=O)[O-])cc1.[Na+].[Na+] [Green 3]
Expected Absorption Maxima [1]: 625 nm

O=C([O-])C1=NN(c2ccc(S(=O)(=O)[O-])cc2)C(=O)/C1=N/Nc1ccc(S(=O)(=O)[O-])cc1.[Na+].[Na+].[Na+] [Yellow 5, Trisodium (4E)-5-oxo-1-(4-sulfonatophenyl)-4-[(4-sulfonatophenyl)hydrazono]-3-pyrazolecarboxylate]
Dead Intensity (dead gate intensity divided by live gate intensity) ([2]; dye 25 μM, Average of Hoechst levels): 90% | Dead Intensity (dead gate intensity divided by live gate intensity) ([2]; dye 25 μM, Hoechst 12 μL/2 mL): 90% | Dead Intensity (dead gate intensity divided by live gate intensity) ([2]; dye 25 μM, Hoechst 14 μL/2 mL): 90% | Dead Intensity (dead gate intensity divided by live gate intensity) ([2]; dye 25 μM, Hoechst 16 μL/2 mL): 90% | Dead Intensity (dead gate intensity divided by live gate intensity) ([2]; dye 62.5 μM, Average of Hoechst levels): 74% | Dead Intensity (dead gate intensity divided by live gate intensity) [2, 4]: 74% | Dead Intensity (dead gate intensity divided by live gate intensity) [2, 5]: 77% | Dead Intensity (dead gate intensity divided by live gate intensity) [2, 6]: 70% | Dead Intensity (dead gate intensity divided by live gate intensity) ([2]; dye 125 μM, Average of Hoechst levels): 57% | Dead Intensity (dead gate intensity divided by live gate intensity) ([2]; dye 125 μM, Hoechst 12 μL/2 mL): 54% | Dead Intensity (dead gate intensity divided by live gate intensity) ([2]; dye 125 μM, Hoechst 14 μL/2 mL): 63% | Dead Intensity (dead gate intensity divided by live gate intensity) ([2]; dye 125 μM, Hoechst 16 μL/2 mL): 55% | amount of dye needed for a similar dead gate intensity ratio as red food dye No. 40 and yellow food dye No. 6 ([2]; Ex 6): about five times as much | Intensity (dead gate) ([2]; Ex 6, dye 125 μM, resulting pH 6.70): 63% | Intensity (dead gate) ([2]; Ex 6, dye 250 μM, resulting pH 6.70): 48% | Intensity (dead gate) ([2]; Ex 6, dye 500 μM, resulting pH 6.70): 43% | Intensity (dead gate) ([2]; Ex 6, dye 750 μM, resulting pH 6.70): <30% | Intensity (dead gate) ([2]; Ex 6, dye 875 μM, resulting pH 6.70): <30% | Intensity (dead gate) ([2]; Ex 6, dye 1250 μM, second buffer pH 5.60 (resulting pH 6.70)): <30% | Expected Absorption Maxima [1]: 422 nm | Height of Peak/Height of Valley ([3]; dye 25 μM, Average of 12 and 14 μL series): 1.72 | Height of Peak/Height of Valley ([3]; dye 25 μM, Hoechst 12 μL/2 mL): 1.90 | Height of Peak/Height of Valley ([3]; dye 25 μM, Hoechst 14 μL/2 mL): 1.54 | Height of Peak/Height of Valley ([3]; dye 25 μM, Hoechst 16 μL/2 mL): 1.00 | Height of Peak/Height of Valley ([3]; dye 62.5 μM, Average of 12 and 14 μL series): 1.65 | Height of Peak/Height of Valley [3, 4]: 1.60 | Height of Peak/Height of Valley [3, 5]: 1.70 | Height of Peak/Height of Valley [3, 6]: 1.00 | Height of Peak/Height of Valley ([3]; dye 125 μM, Average of 12 and 14 μL series): 1.82 | Height of Peak/Height of Valley ([3]; dye 125 μM, Hoechst 12 μL/2 mL): 1.72 | Height of Peak/Height of Valley ([3]; dye 125 μM, Hoechst 14 μL/2 mL): 1.92 | Height of Peak/Height of Valley ([3]; dye 125 μM, Hoechst 16 μL/2 mL): 1.03 | PV ([3]; Ex 6, dye 125 μM, resulting pH 6.70, Hoechst 48 μM): 1.00 | PV ([3]; Ex 6, dye 250 μM, resulting pH 6.70, Hoechst 48 μM): 1.00 | PV ([3]; Ex 6, dye 500 μM, resulting pH 6.70, Hoechst 48 μM): 1.00 | PV ([3]; Ex 6, dye 750 μM, resulting pH 6.70, Hoechst 48 μM): 1.00 | PV ([3]; Ex 6, dye 875 μM, resulting pH 6.70, Hoechst 48 μM): 1.00 | PV ([3]; Ex 6, dye 1250 μM, resulting pH 6.70, Hoechst 48 μM (understained)): 1.00

O=C1/C(=C2\Nc3ccc(S(=O)(=O)[O-])cc3C2=O)Nc2ccc(S(=O)(=O)[O-])cc21.[Na+].[Na+] [Blue 2]
Expected Absorption Maxima [1]: 610 nm

O=C(O)c1ccccc1-c1c2cc(I)c(=O)c(I)c-2oc2c(I)c(O)c(I)cc12 [Red 3, 2-(6-Hydroxy-2,4,5,7-tetraiodo-3-oxo-xanthen-9-yl)benzoic acid]
(local) maximum absorption wavelength, as believed ([1]; phenol red in the red molecular form): about 530 nm | Expected Absorption Maxima [1]: 530 nm | PV ([3]; Ex 9, Bull 3, Hoechst 60 μM, R3 25 μM with Y6 50 μM, first Y6 series): 1.45 | PV ([3]; Ex 9, Bull 3, Hoechst 60 μM, R3 50 μM with R40 50 μM): 1.63 | PV ([3]; Ex 9, Bull 3, Hoechst 60 μM, R3 50 μM with Y6 50 μM, second Y6 series): 1.33 | PV ([3]; Ex 9, Bull 3, Hoechst 60 μM, R3 100 μM with R40 50 μM): 1.65 | PV ([3]; Ex 9, Bull 3, Hoechst 60 μM, R3 100 μM with Y6 50 μM, first Y6 series): 1.38 | PV ([3]; Ex 9, Bull 3, Hoechst 60 μM, R3 100 μM with Y6 50 μM, second Y6 series): 1.55 | PV ([3]; Ex 9, Bull 3, Hoechst 60 μM, R3 150 μM with Y6 50 μM, first Y6 series): 1.41 | PV ([3]; Ex 9, Bull 3, Hoechst 60 μM, R3 200 μM with R40 50 μM): 1.78 | PV ([3]; Ex 9, Bull 3, Hoechst 60 μM, R3 300 μM with R40 50 μM): 2.15 | PV ([3]; Ex 9, Bull 3, Hoechst 60 μM, R3 300 μM with Y6 50 μM, first Y6 series): 1.66 | PV ([3]; Ex 9, Bull 3, Hoechst 60 μM, R3 300 μM with Y6 50 μM, second Y6 series): 1.68 | PV ([3]; Ex 9, Bull 3, Hoechst 60 μM, R3 600 μM with Y6 50 μM, first Y6 series): 1.31 | PV ([3]; Ex 9, Bull 3, Hoechst 60 μM, R3 600 μM with Y6 50 μM, second Y6 series): 1.42 | peak to valley ratio, average 8 bulls [3, 7]: 1.05 | peak to valley ratio, average 8 bulls [3, 8]: 1.43 | peak to valley ratio, average 8 bulls [3, 9]: 1.78 | peak to valley ratio, average 8 bulls [3, 10]: 1.79 | peak to valley ratio, average 8 bulls [3, 11]: 1.05 | peak to valley ratio, average 8 bulls [3, 12]: 1.36 | peak to valley ratio, average 8 bulls [3, 13]: 1.58 | peak to valley ratio, average 8 bulls [3, 14]: 1.60 | peak to valley ratio, average 8 bulls [3, 15]: 1.00 | peak to valley ratio, average 8 bulls [3, 16]: 1.02 | peak to valley ratio, average 8 bulls [3, 17]: 1.10 | peak to valley ratio, average 8 bulls [3, 18]: 1.32

O=S(=O)([O-])c1ccc2c(N=Nc3ccc(S(=O)(=O)[O-])c4ccccc34)c(O)c(S(=O)(=O)[O-])cc2c1.[Na+].[Na+].[Na+] [Red 2]
dead quenching capacity of split enhancing dye in combination with yellow food dye No. 6 (FIG. 8) ([2]; Ex 10, Y6 25 μM): strong dead quenching capacity | Expected Absorption Maxima [1]: 520 nm | split enhancing effect compared to control, in words ([3]; Ex 10, 15, 45, 125 μM, averaged over 8 bulls): did not provide a split enhancing, or noise reducing effect | peak to valley ratio, average 8 bulls [3, 7]: 1.06 | peak to valley ratio, average 8 bulls [3, 8]: 1.15 | peak to valley ratio, average 8 bulls [3, 9]: 1.54 | peak to valley ratio, average 8 bulls [3, 10]: 1.73 | peak to valley ratio, average 8 bulls [3, 11]: 1.00 | peak to valley ratio, average 8 bulls [3, 12]: 1.05 | peak to valley ratio, average 8 bulls [3, 13]: 1.12 | peak to valley ratio, average 8 bulls [3, 14]: 1.38 | peak to valley ratio, average 8 bulls [3, 15]: 1.00 | peak to valley ratio, average 8 bulls [3, 16]: 1.00 | peak to valley ratio, average 8 bulls [3, 17]: 1.00 | peak to valley ratio, average 8 bulls [3, 18]: 1.00

CCN(Cc1cccc(S(=O)(=O)[O-])c1)c1ccc(C(=C2C=CC(=[N+](CC)Cc3cccc(S(=O)(=O)[O-])c3)C=C2)c2ccccc2S(=O)(=O)[O-])cc1.[Na+].[Na+] [Blue 1]
Expected Absorption Maxima [1]: 627 nm
